The text below walks through data of patent US5494893A, “Stylostatin 2” (Arizona Board of Regents, a body corporate acting on behalf …, priority 1994, dated 1996).

Values after ≈ are worked out from the molar mass of the structure shown. Where a SMILES comes first, the peptide text is derived from it.

The subject of one experiment is OVCAR 3. The experiment can be described thus: OVCAR 3 human cancer cell growth inhibition. Format: cell-based. The note with it: OVCAR 3 cell line. From the text: (§1) Current research in the control of cancer in the United States is coordinated by the National Cancer Institute (NCI). To determine whether a substance has anti-cancer properties, the NCI has established a systematic protocol. This protocol, which involves the testing of a substance against a standard cell line panel containing 60 human tumor cell lines, has been verified and has been accepted in scientific circles. The protocol, and the established statistical means for analyzing the results obtained by the standardized testing are fully described in the literature. See: Boyd, Dr. Michael R., Principles & Practice of Oncology, PPO Updates, Volume 3, Number 10, Oct. […]
(§2) Each drug is tested at five (5) doses: 100--10--1--0.1--0.01 μg/ml. Percent Growths are calculated for each dose. […]
(§3) At the start of an experiment, cells from the in vitro cell cultures are inoculated into the appropriate tubes or microtiter plates. One set of control tubes/plates is immediately counted to determine the number of cells at the start of the experiment. This is the "baseline count", or "Tzero reading". At the end of the experiment (48 hours later), a second set of control tubes/plates is analyzed to determine the "Control Growth" value. The growth (or death) of cells relative to the initial quantity of cells is used to define the "Percent of Growth".

The test system of experiment [1] is U.S. National Cancer Institute panel of 60 human cancer cell lines. As to the kind of experiment: NCI panel of 60 human cancer cell lines, growth inhibition. Format: cell-based. The note with it: NCI 60 cell line panel, quadruplicate tests, average over panel, 48 hours; read-out: overall panel-averaged GI50 concentration.
Source text: as §1, §2, §3

Experiment [2] relates to murine P388 lymphocytic leukemia (PS system) cell line. The note with it: earlier reported work (J. Org. Chem. 1992); cited from earlier work.

In the case of `CC[C@H](C)[C@@H]1NC(=O)[C@H](CC(C)C)NC(=O)[C@@H]2CCCN2C(=O)[C@H]([C@@H](C)CC)NC(=O)[C@@H]2CCCN2C(=O)[C@H](CO)NC(=O)[C@H](Cc2ccccc2)NC1=O` [stylostatin 2, cyclo (Pro-Leu-Ile-Phe-Ser-Pro-Ile)] (cyclo(FSPIPLI)), the GI50 in the experiment on OVCAR 3 was determined as 3.7 µg/mL (≈ 4.82 µM); in experiment [1] it was 6.2 µM. On to “cyclo (Pro-Phe-Asn-Ser-Leu-Ala-Ile) (PFNSLAI; head-to-tail cyclic; printed: Pro-Phe-Asn-Ser-Leu-Ala-Ile) [stylostatin 1, cycloheptapeptide earlier isolated from the same Stylotella sp. sponge]”, for which the “P388 (PS system) cell line inhibition” value in experiment [2] is “inhibitor”.
